Measured values: patent US10251395B2, “Substituted furano-/thienocycloalkylamino-2-pyrimidine derivatives and use thereof for controlling undesired plant growth” (Bayer CropScience Aktiengesellschaft, priority 2015, dated 2019)

How the values were obtained:
Format in all cases: in vivo
Abutilon theophrasti [1] = assay: Pre-emergence herbicidal effect; settings: scored visually after 3 weeks
Outline: (§1)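 Visual damage score in % after 3 weeks in the greenhouse, relative to untreated controls (0% like control, 100% plants dead). Compounds were sprayed pre-emergence onto covering soil over seeds sown in sandy loam, as WP or EC in water at 600 to 800 L/ha plus 0.2% wetting agent.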

Alopecurus myosuroides [2] = assay: Pre-emergence herbicidal effect; settings: scored visually after 3 weeks
Outline: as §1

Amaranthus retroflexus [3] = assay: Pre-emergence herbicidal effect; settings: scored visually after 3 weeks
Outline: as §1

Avena fatua [4] = assay: Pre-emergence herbicidal effect; settings: scored visually after 3 weeks
Outline: as §1

Cyperus esculentus = assay: Pre-emergence herbicidal effect; settings: scored visually after 3 weeks
Outline: as §1

Echinochloa crus-galli [5] = assay: Pre-emergence herbicidal effect; settings: scored visually after 3 weeks
Outline: as §1

Lolium multiflorum [6] = assay: Pre-emergence herbicidal effect; settings: scored visually after 3 weeks
Outline: as §1

Matricaria inodora [7] = assay: Pre-emergence herbicidal effect; settings: scored visually after 3 weeks
Outline: as §1

Polygonum convolvulus [8] = assay: Pre-emergence herbicidal effect; settings: scored visually after 3 weeks
Outline: as §1

Setaria viridis [9] = assay: Pre-emergence herbicidal effect; settings: scored visually after 3 weeks
Outline: as §1

Stellaria media [10] = assay: Pre-emergence herbicidal effect; settings: scored visually after 3 weeks
Outline: as §1

Veronica persica [11] = assay: Pre-emergence herbicidal effect; settings: scored visually after 3 weeks
Outline: as §1

Viola tricolor [12] = assay: Pre-emergence herbicidal effect; settings: scored visually after 3 weeks
Outline: as §1

Abutilon theophrasti [13] = assay: Post-emergence herbicidal effect; settings: assessed visually after about 3 weeks vs untreated controls
Outline: (§2)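 Percent herbicidal action was judged by eye roughly 3 weeks post-application, 0% matching control plants and 100% meaning plant death. Seedlings, greenhouse-grown in sandy loam, received the spray at one leaf.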

Alopecurus myosuroides [14] = assay: Post-emergence herbicidal effect; settings: assessed visually after about 3 weeks vs untreated controls
Outline: as §2

Amaranthus retroflexus [15] = assay: Post-emergence herbicidal effect; settings: assessed visually after about 3 weeks vs untreated controls
Outline: as §2

Avena fatua [16] = assay: Post-emergence herbicidal effect; settings: assessed visually after about 3 weeks vs untreated controls
Outline: as §2

Echinochloa crus-galli [17] = assay: Post-emergence herbicidal effect; settings: assessed visually after about 3 weeks vs untreated controls
Outline: as §2

Ipomoea purpurea = assay: Post-emergence herbicidal effect; settings: assessed visually after about 3 weeks vs untreated controls
Outline: as §2

Lolium multiflorum [18] = assay: Post-emergence herbicidal effect; settings: assessed visually after about 3 weeks vs untreated controls
Outline: as §2

Matricaria inodora [19] = assay: Post-emergence herbicidal effect; settings: assessed visually after about 3 weeks vs untreated controls
Outline: as §2

Polygonum convolvulus [20] = assay: Post-emergence herbicidal effect; settings: assessed visually after about 3 weeks vs untreated controls
Outline: as §2

Setaria viridis [21] = assay: Post-emergence herbicidal effect; settings: assessed visually after about 3 weeks vs untreated controls
Outline: as §2

Stellaria media [22] = assay: Post-emergence herbicidal effect; settings: assessed visually after about 3 weeks vs untreated controls
Outline: as §2

Veronica persica [23] = assay: Post-emergence herbicidal effect; settings: assessed visually after about 3 weeks vs untreated controls
Outline: as §2

Viola tricolor [24] = assay: Post-emergence herbicidal effect; settings: assessed visually after about 3 weeks vs untreated controls
Outline: as §2

## Cc1cc2c(s1)CCC[C@H]2Nc1ncc(I)c(N)n1 [compound 173]
Abutilon theophrasti [1]; Dosage 320 g/ha
  ABUTH pre-emergence efficacy (herbicidal activity): 100%
Alopecurus myosuroides [2]; Dosage 80 g/ha
  ALOMY pre-emergence efficacy (herbicidal activity): 60%
Alopecurus myosuroides [2]; Dosage 320 g/ha
  ALOMY pre-emergence efficacy (herbicidal activity): 80%
Amaranthus retroflexus [3]; Dosage 80 g/ha
  AMARE pre-emergence efficacy (herbicidal activity): 100%
Amaranthus retroflexus [3]; Dosage 320 g/ha
  AMARE pre-emergence efficacy (herbicidal activity): 100%
Avena fatua [4]; Dosage 320 g/ha
  AVEFA pre-emergence efficacy (herbicidal activity): 60%
Cyperus esculentus; Dosage 320 g/ha
  CYPES pre-emergence efficacy (herbicidal activity): 60%
Echinochloa crus-galli [5]; Dosage 80 g/ha
  ECHCG pre-emergence efficacy (herbicidal activity): 100%
Echinochloa crus-galli [5]; Dosage 320 g/ha
  ECHCG pre-emergence efficacy (herbicidal activity): 100%
Lolium multiflorum [6]; Dosage 80 g/ha
  LOLMU pre-emergence efficacy (herbicidal activity): 60%
Lolium multiflorum [6]; Dosage 320 g/ha
  LOLMU pre-emergence efficacy (herbicidal activity): 100%
Matricaria inodora [7]; Dosage 80 g/ha
  MATIN pre-emergence efficacy (herbicidal activity): 100%
Matricaria inodora [7]; Dosage 320 g/ha
  MATIN pre-emergence efficacy (herbicidal activity): 100%
Polygonum convolvulus [8]; Dosage 80 g/ha
  POLCO pre-emergence efficacy (herbicidal activity): 90%
Polygonum convolvulus [8]; Dosage 320 g/ha
  POLCO pre-emergence efficacy (herbicidal activity): 100%
Setaria viridis [9]; Dosage 80 g/ha
  SETVI pre-emergence efficacy (herbicidal activity): 90%
Setaria viridis [9]; Dosage 320 g/ha
  SETVI pre-emergence efficacy (herbicidal activity): 100%
Stellaria media [10]; Dosage 80 g/ha
  STEME pre-emergence efficacy (herbicidal activity): 100%
Stellaria media [10]; Dosage 320 g/ha
  STEME pre-emergence efficacy (herbicidal activity): 100%
Veronica persica [11]; Dosage 80 g/ha
  VERPE pre-emergence efficacy (herbicidal activity): 90%
Veronica persica [11]; Dosage 320 g/ha
  VERPE pre-emergence efficacy (herbicidal activity): 100%
Viola tricolor [12]; Dosage 80 g/ha
  VIOTR pre-emergence efficacy (herbicidal activity): 100%
Viola tricolor [12]; Dosage 320 g/ha
  VIOTR pre-emergence efficacy (herbicidal activity): 100%
Abutilon theophrasti [13]; 80 g/ha
  post-emergence efficacy ABUTH: 80%
Abutilon theophrasti [13]; 320 g/ha
  post-emergence efficacy ABUTH: 90%
Alopecurus myosuroides [14]; 320 g/ha
  post-emergence efficacy ALOMY: 100%
Amaranthus retroflexus [15]; 80 g/ha
  post-emergence efficacy AMARE: 90%
Amaranthus retroflexus [15]; 320 g/ha
  post-emergence efficacy AMARE: 90%
Avena fatua [16]; 320 g/ha
  post-emergence efficacy AVEFA: 90%
Echinochloa crus-galli [17]; 80 g/ha
  post-emergence efficacy ECHCG: 100%
Echinochloa crus-galli [17]; 320 g/ha
  post-emergence efficacy ECHCG: 100%
Ipomoea purpurea; 80 g/ha
  post-emergence efficacy PHBPU: 90%
Ipomoea purpurea; 320 g/ha
  post-emergence efficacy PHBPU: 100%
Lolium multiflorum [18]; 80 g/ha
  post-emergence efficacy LOLMU: 60%
Lolium multiflorum [18]; 320 g/ha
  post-emergence efficacy LOLMU: 90%
Matricaria inodora [19]; 80 g/ha
  post-emergence efficacy MATIN: 60%
Matricaria inodora [19]; 320 g/ha
  post-emergence efficacy MATIN: 90%
Polygonum convolvulus [20]; 320 g/ha
  post-emergence efficacy POLCO: 60%
Setaria viridis [21]; 80 g/ha
  post-emergence efficacy SETVI: 80%
Setaria viridis [21]; 320 g/ha
  post-emergence efficacy SETVI: 90%
Stellaria media [22]; 80 g/ha
  post-emergence efficacy STEME: 100%
Stellaria media [22]; 320 g/ha
  post-emergence efficacy STEME: 100%
Veronica persica [23]; 320 g/ha
  post-emergence efficacy VERPE: 100%
Viola tricolor [24]; 80 g/ha
  post-emergence efficacy VIOTR: 90%
Viola tricolor [24]; 320 g/ha
  post-emergence efficacy VIOTR: 90%

## Cc1cc2c(s1)CCCC2Nc1ncc(C#N)c(N)n1 (stereo not shown) [compound 282]
Abutilon theophrasti [1]; Dosage 80 g/ha
  ABUTH pre-emergence efficacy (herbicidal activity): 80%
Abutilon theophrasti [1]; Dosage 320 g/ha
  ABUTH pre-emergence efficacy (herbicidal activity): 80%
Alopecurus myosuroides [2]; Dosage 80 g/ha
  ALOMY pre-emergence efficacy (herbicidal activity): 100%
Alopecurus myosuroides [2]; Dosage 320 g/ha
  ALOMY pre-emergence efficacy (herbicidal activity): 100%
Amaranthus retroflexus [3]; Dosage 80 g/ha
  AMARE pre-emergence efficacy (herbicidal activity): 100%
Amaranthus retroflexus [3]; Dosage 320 g/ha
  AMARE pre-emergence efficacy (herbicidal activity): 100%
Avena fatua [4]; Dosage 80 g/ha
  AVEFA pre-emergence efficacy (herbicidal activity): 80%
Avena fatua [4]; Dosage 320 g/ha
  AVEFA pre-emergence efficacy (herbicidal activity): 90%
Cyperus esculentus; Dosage 80 g/ha
  CYPES pre-emergence efficacy (herbicidal activity): 80%
Cyperus esculentus; Dosage 320 g/ha
  CYPES pre-emergence efficacy (herbicidal activity): 100%
Echinochloa crus-galli [5]; Dosage 80 g/ha
  ECHCG pre-emergence efficacy (herbicidal activity): 100%
Echinochloa crus-galli [5]; Dosage 320 g/ha
  ECHCG pre-emergence efficacy (herbicidal activity): 100%
Lolium multiflorum [6]; Dosage 80 g/ha
  LOLMU pre-emergence efficacy (herbicidal activity): 100%
Lolium multiflorum [6]; Dosage 320 g/ha
  LOLMU pre-emergence efficacy (herbicidal activity): 100%
Matricaria inodora [7]; Dosage 80 g/ha
  MATIN pre-emergence efficacy (herbicidal activity): 100%
Matricaria inodora [7]; Dosage 320 g/ha
  MATIN pre-emergence efficacy (herbicidal activity): 100%
Polygonum convolvulus [8]; Dosage 80 g/ha
  POLCO pre-emergence efficacy (herbicidal activity): 100%
Polygonum convolvulus [8]; Dosage 320 g/ha
  POLCO pre-emergence efficacy (herbicidal activity): 100%
Setaria viridis [9]; Dosage 80 g/ha
  SETVI pre-emergence efficacy (herbicidal activity): 100%
Setaria viridis [9]; Dosage 320 g/ha
  SETVI pre-emergence efficacy (herbicidal activity): 100%
Stellaria media [10]; Dosage 80 g/ha
  STEME pre-emergence efficacy (herbicidal activity): 100%
Stellaria media [10]; Dosage 320 g/ha
  STEME pre-emergence efficacy (herbicidal activity): 100%
Veronica persica [11]; Dosage 80 g/ha
  VERPE pre-emergence efficacy (herbicidal activity): 100%
Veronica persica [11]; Dosage 320 g/ha
  VERPE pre-emergence efficacy (herbicidal activity): 100%
Viola tricolor [12]; Dosage 80 g/ha
  VIOTR pre-emergence efficacy (herbicidal activity): 100%
Viola tricolor [12]; Dosage 320 g/ha
  VIOTR pre-emergence efficacy (herbicidal activity): 100%
Abutilon theophrasti [13]; 80 g/ha
  post-emergence efficacy ABUTH: 90%
Abutilon theophrasti [13]; 320 g/ha
  post-emergence efficacy ABUTH: 90%
Alopecurus myosuroides [14]; 80 g/ha
  post-emergence efficacy ALOMY: 100%
Alopecurus myosuroides [14]; 320 g/ha
  post-emergence efficacy ALOMY: 100%
Amaranthus retroflexus [15]; 80 g/ha
  post-emergence efficacy AMARE: 100%
Amaranthus retroflexus [15]; 320 g/ha
  post-emergence efficacy AMARE: 100%
Avena fatua [16]; 80 g/ha
  post-emergence efficacy AVEFA: 100%
Avena fatua [16]; 320 g/ha
  post-emergence efficacy AVEFA: 100%
Echinochloa crus-galli [17]; 80 g/ha
  post-emergence efficacy ECHCG: 100%
Echinochloa crus-galli [17]; 320 g/ha
  post-emergence efficacy ECHCG: 100%
Ipomoea purpurea; 80 g/ha
  post-emergence efficacy PHBPU: 80%
Ipomoea purpurea; 320 g/ha
  post-emergence efficacy PHBPU: 90%
Lolium multiflorum [18]; 80 g/ha
  post-emergence efficacy LOLMU: 100%
Lolium multiflorum [18]; 320 g/ha
  post-emergence efficacy LOLMU: 100%
Matricaria inodora [19]; 80 g/ha
  post-emergence efficacy MATIN: 90%
Matricaria inodora [19]; 320 g/ha
  post-emergence efficacy MATIN: 90%
Polygonum convolvulus [20]; 80 g/ha
  post-emergence efficacy POLCO: 90%
Polygonum convolvulus [20]; 320 g/ha
  post-emergence efficacy POLCO: 90%
Setaria viridis [21]; 80 g/ha
  post-emergence efficacy SETVI: 100%
Setaria viridis [21]; 320 g/ha
  post-emergence efficacy SETVI: 100%
Stellaria media [22]; 80 g/ha
  post-emergence efficacy STEME: 100%
Stellaria media [22]; 320 g/ha
  post-emergence efficacy STEME: 100%
Veronica persica [23]; 80 g/ha
  post-emergence efficacy VERPE: 80%
Veronica persica [23]; 320 g/ha
  post-emergence efficacy VERPE: 90%
Viola tricolor [24]; 80 g/ha
  post-emergence efficacy VIOTR: 100%
Viola tricolor [24]; 320 g/ha
  post-emergence efficacy VIOTR: 100%
